In PubChem BioAssay (NCI):
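Here, GI50 denotes the concentration required for 50% inhibition of growth. TGI marks complete inhibition of growth.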

What was measured:
Assay in all cases: NCI anticancer screen, dose series, 384-well format
[1] = tested on: ACHN renal
[2] = tested on: OVCAR-3 ovarian
[3] = tested on: SNB-19 CNS
[4] = tested on: SK-MEL-5 melanoma
[5] = tested on: A549 NSCLC
[6] = tested on: SF-268 CNS
[7] = tested on: PC-3 prostate
[8] = tested on: HOP-62 NSCLC
[9] = tested on: HT29 colon
[10] = tested on: HCT-116 colon
[11] = tested on: SF-539 CNS
[12] = tested on: HS 578T breast
[13] = tested on: COLO 205 colon
[14] = tested on: SF-295 CNS
[15] = tested on: EKVX NSCLC
[16] = tested on: SK-OV-3 ovarian
[17] = tested on: U251 glioblastoma
[18] = tested on: UACC-62 melanoma
[19] = tested on: OVCAR-4 ovarian
[20] = tested on: T-47D breast
[21] = tested on: NCI-H522 lung
[22] = tested on: TK-10 renal
[23] = tested on: M14 melanoma
[24] = tested on: OVCAR-5 ovarian
[25] = tested on: OVCAR-8 ovarian
[26] = tested on: NCI-H226 lung
[27] = tested on: RPMI-8226 leukemia
[28] = tested on: CAKI-1 renal
[29] = tested on: CCRF-CEM leukemia
[30] = tested on: HL-60(TB) leukemia
[31] = tested on: MDA-MB-468 breast
[32] = tested on: NCI-H23 lung
[33] = tested on: IGROV1 ovarian
[34] = tested on: UO-31 renal
[35] = tested on: HCC-2998 colon
[36] = tested on: NCI-H322M lung
[37] = tested on: A498 renal
[38] = tested on: MOLT-4 leukemia
[39] = tested on: BT-549 breast
[40] = tested on: UACC-257 melanoma
[41] = tested on: KM12 colon
[42] = tested on: MDA-MB-231 breast
[43] = tested on: SN12C renal
[44] = tested on: NCI/ADR-RES ovarian
[45] = tested on: K-562 leukemia
[46] = tested on: 786-0 renal
[47] = tested on: RXF 393 renal
[48] = tested on: MDA-MB-435 melanoma
[49] = tested on: SNB-75 CNS
[50] = tested on: NCI-H460 NSCLC
[51] = tested on: DU-145 prostate
[52] = tested on: HCT-15 colon
[53] = tested on: SK-MEL-28 melanoma
[54] = tested on: HOP-92 NSCLC
[55] = tested on: SW-620 colon
[56] = tested on: MCF7 breast
[57] = tested on: MALME-3M melanoma
[58] = tested on: LOX IMVI melanoma

`CC[C@H](C)n1cc(C)c2c(C(=O)NCc3c(C)cc(C)[nH]c3=O)cc(-c3ccc(N4CCNCC4)nc3)cc21` gave a GI50 [1] of 4230 nM, a TGI [1] of 15600 nM and a GI50 [2] of 2250 nM. It also gave a TGI [2] of 4390 nM, a GI50 [3] of 2110 nM and a TGI [3] of 3750 nM. The GI50 [4] was 1630 nM, the TGI [4] was 2990 nM and the GI50 [5] was 1960 nM. For the same compound, the TGI [5] was 3920 nM, the GI50 [6] was 1620 nM and the TGI [6] was 2980 nM. It also gave a GI50 [7] of 3230 nM, a TGI [7] of 8540 nM and a GI50 [8] of 1640 nM. The TGI [8] was 3020 nM, the GI50 [9] was 1680 nM and the TGI [9] was 3110 nM. It also gave a GI50 [10] of 1790 nM, a TGI [10] of 3230 nM and a GI50 [11] of 1600 nM. It also gave a TGI [11] of 2960 nM, a GI50 [12] of 1410 nM and a TGI [12] of 2710 nM. It also gave a GI50 [13] of 1710 nM, a TGI [13] of 3100 nM and a GI50 [14] of 1870 nM. For the same compound, the TGI [14] was 3320 nM, the GI50 [15] was 1830 nM and the TGI [15] was 3490 nM. The GI50 [16] was 1860 nM, the TGI [16] was 3300 nM and the GI50 [17] was 1830 nM. The TGI [17] was 3250 nM, the GI50 [18] was 1570 nM and the TGI [18] was 2920 nM. The GI50 [19] was 3580 nM, the TGI [19] was 10800 nM and the GI50 [20] was 1470 nM. The TGI [20] was 2820 nM, the GI50 [21] was 1860 nM and the TGI [21] was 3270 nM. For the same compound, the GI50 [22] was 1910 nM, the TGI [22] was 3640 nM and the GI50 [23] was 1750 nM. It also gave a TGI [23] of 3140 nM, a GI50 [24] of 2620 nM and a TGI [24] of 6440 nM. The GI50 [25] was 1810 nM, the TGI [25] was 3340 nM and the GI50 [26] was 3760 nM. The TGI [26] was 14500 nM, the GI50 [27] was 1390 nM and the TGI [27] was 2700 nM. The GI50 [28] was 1760 nM, the TGI [28] was 3170 nM and the GI50 [29] was 1530 nM. The TGI [29] was 2870 nM, the GI50 [30] was 2030 nM and the TGI [30] was 3470 nM. It also gave a GI50 [31] of 1460 nM, a TGI [31] of 2790 nM and a GI50 [32] of 2890 nM. It also gave a TGI [32] of 7440 nM, a GI50 [33] of 1540 nM and a TGI [33] of 3670 nM. It also gave a GI50 [34] of 13100 nM, a TGI [34] of 25800 nM and a GI50 [35] of 1600 nM. The TGI [35] was 2980 nM, the GI50 [36] was 1960 nM and the TGI [36] was 4070 nM. The GI50 [37] was 1940 nM, the TGI [37] was 3430 nM and the GI50 [38] was 1630 nM. The TGI [38] was 2990 nM, the GI50 [39] was 1670 nM and the TGI [39] was 3050 nM. The GI50 [40] was 1630 nM, the TGI [40] was 2990 nM and the GI50 [41] was 1790 nM. For the same compound, the TGI [41] was 3320 nM, the GI50 [42] was 1650 nM and the TGI [42] was 3060 nM. For the same compound, the GI50 [43] was 1780 nM, the TGI [43] was 3490 nM and the GI50 [44] was 17700 nM. The TGI [44] was 31600 nM, the GI50 [45] was 1480 nM and the TGI [45] was 2810 nM. For the same compound, the GI50 [46] was 1710 nM, the TGI [46] was 3100 nM and the GI50 [47] was 1730 nM. It also gave a TGI [47] of 3140 nM, a GI50 [48] of 2070 nM and a TGI [48] of 3520 nM. It also gave a GI50 [49] of 1350 nM, a TGI [49] of 2650 nM and a GI50 [50] of 1830 nM. It also gave a TGI [50] of 3240 nM, a GI50 [51] of 3830 nM and a TGI [51] of 12100 nM. For the same compound, the GI50 [52] was 1860 nM, the TGI [52] was 3480 nM and the GI50 [53] was 2150 nM. It also gave a TGI [53] of 3600 nM, a GI50 [54] of 1830 nM and a TGI [54] of 3250 nM. For the same compound, the GI50 [55] was 1740 nM, the TGI [55] was 3120 nM and the GI50 [56] was 1520 nM. The TGI [56] was 2890 nM, the GI50 [57] was 1610 nM and the TGI [57] was 2970 nM. It also gave a GI50 [58] of 1640 nM and a TGI [58] of 3020 nM.
